Reference: PMC6704710, “Preclinical evaluation of 3D185, a novel potent inhibitor of FGFR1/2/3 and CSF-1R, in FGFR-dependent and macrophage-dominant cancer models” (Journal of Experimental & Clinical Cancer Research : CR, 2019)

Legend:
Assay in all cases: Eurofins kinase panel
Format in all cases: biochemical
[1] = target: T1, CK2α1(h) (Homo sapiens, UniProt P68400); conditions: read-out: Inhibition rate (%)
T1 construct: purchased Eurofins (KinaseProfiler)

[2] = target: T2, MSSK1(h) (Homo sapiens, UniProt Q9UPE1); conditions: read-out: Inhibition rate (%)
T2 construct: purchased Eurofins (KinaseProfiler)

[3] = system: ROCK-II(r)
[4] = target: T3, BTK(h) (Homo sapiens, UniProt Q06187); conditions: read-out: Inhibition rate (%)
T3 construct: purchased Eurofins (KinaseProfiler)

[5] = target: T4, TSSK2(h) (Homo sapiens, UniProt Q96PF2); conditions: read-out: Inhibition rate (%)
T4 construct: purchased Eurofins (KinaseProfiler)
T4 sequence (Q96PF2 1-358): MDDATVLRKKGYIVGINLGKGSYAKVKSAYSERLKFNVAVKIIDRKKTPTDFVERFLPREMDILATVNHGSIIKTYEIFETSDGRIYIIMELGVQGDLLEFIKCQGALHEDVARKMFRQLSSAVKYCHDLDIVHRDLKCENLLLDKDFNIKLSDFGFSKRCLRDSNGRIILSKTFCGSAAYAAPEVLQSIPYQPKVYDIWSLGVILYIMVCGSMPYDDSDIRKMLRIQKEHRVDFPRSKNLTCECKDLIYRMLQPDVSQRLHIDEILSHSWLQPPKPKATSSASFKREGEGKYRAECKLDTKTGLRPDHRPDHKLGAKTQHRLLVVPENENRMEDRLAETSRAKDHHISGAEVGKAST

[6] = target: T5, Arg(h) (Homo sapiens, UniProt P42684); conditions: read-out: Inhibition rate (%)
T5 construct: purchased Eurofins (KinaseProfiler)

[7] = target: T6, eEF-2K(h) (Homo sapiens, UniProt O00418); conditions: read-out: Inhibition rate (%)
T6 construct: purchased Eurofins (KinaseProfiler)
T6 sequence (O00418 1-725): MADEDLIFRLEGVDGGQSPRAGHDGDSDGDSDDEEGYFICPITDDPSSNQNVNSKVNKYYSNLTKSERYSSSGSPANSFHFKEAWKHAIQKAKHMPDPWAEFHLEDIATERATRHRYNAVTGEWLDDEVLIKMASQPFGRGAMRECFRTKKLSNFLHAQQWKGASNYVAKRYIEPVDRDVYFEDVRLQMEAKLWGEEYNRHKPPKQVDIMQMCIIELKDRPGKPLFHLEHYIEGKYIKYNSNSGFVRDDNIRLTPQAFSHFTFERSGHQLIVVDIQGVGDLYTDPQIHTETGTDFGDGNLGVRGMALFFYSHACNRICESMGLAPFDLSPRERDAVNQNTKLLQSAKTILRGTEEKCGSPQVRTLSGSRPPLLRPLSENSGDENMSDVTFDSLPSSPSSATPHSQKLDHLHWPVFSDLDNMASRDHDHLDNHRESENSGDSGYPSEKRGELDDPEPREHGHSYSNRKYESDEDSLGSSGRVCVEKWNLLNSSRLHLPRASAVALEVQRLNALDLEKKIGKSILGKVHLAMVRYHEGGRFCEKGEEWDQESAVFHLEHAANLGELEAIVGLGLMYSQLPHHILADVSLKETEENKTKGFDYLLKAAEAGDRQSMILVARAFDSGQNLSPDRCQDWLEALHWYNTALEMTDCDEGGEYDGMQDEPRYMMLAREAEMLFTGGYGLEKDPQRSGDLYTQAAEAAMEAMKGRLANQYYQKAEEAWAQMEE

[8] = target: T7, TTBK1(h) (Homo sapiens, UniProt Q5TCY1); conditions: read-out: Inhibition rate (%)
T7 construct: purchased Eurofins (KinaseProfiler)

[9] = target: T8, PI3 Kinase (p110α(H1047R)/p85α)(h) (Homo sapiens, UniProt P42336, H1047R); conditions: read-out: Inhibition rate (%)
T8 construct: purchased Eurofins (KinaseProfiler)

[10] = target: T9, NEK2(h) (Homo sapiens, UniProt P51955); conditions: read-out: Inhibition rate (%)
T9 construct: purchased Eurofins (KinaseProfiler)
T9 sequence (P51955 1-445): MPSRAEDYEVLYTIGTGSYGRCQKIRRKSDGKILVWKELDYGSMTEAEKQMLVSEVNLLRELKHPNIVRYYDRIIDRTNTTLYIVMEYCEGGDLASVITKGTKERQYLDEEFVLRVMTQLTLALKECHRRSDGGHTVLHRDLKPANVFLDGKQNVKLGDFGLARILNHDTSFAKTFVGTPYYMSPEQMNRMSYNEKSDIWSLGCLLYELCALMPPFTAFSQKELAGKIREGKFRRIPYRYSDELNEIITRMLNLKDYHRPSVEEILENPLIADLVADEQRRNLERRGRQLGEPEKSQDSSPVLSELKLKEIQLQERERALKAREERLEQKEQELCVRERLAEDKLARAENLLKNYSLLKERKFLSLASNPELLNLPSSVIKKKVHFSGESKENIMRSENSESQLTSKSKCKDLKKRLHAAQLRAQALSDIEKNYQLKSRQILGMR

[11] = target: T10, Syk(h) (Homo sapiens, UniProt P43405); conditions: read-out: Inhibition rate (%)
T10 construct: purchased Eurofins (KinaseProfiler)

[12] = target: T11, Pim-2(h) (Homo sapiens, UniProt Q9P1W9); conditions: read-out: Inhibition rate (%)
T11 construct: purchased Eurofins (KinaseProfiler)

[13] = target: T12, Lck(h) (Homo sapiens, UniProt P06239); conditions: read-out: Inhibition rate (%)
T12 construct: purchased Eurofins (KinaseProfiler)
T12 sequence (P06239 whole entry): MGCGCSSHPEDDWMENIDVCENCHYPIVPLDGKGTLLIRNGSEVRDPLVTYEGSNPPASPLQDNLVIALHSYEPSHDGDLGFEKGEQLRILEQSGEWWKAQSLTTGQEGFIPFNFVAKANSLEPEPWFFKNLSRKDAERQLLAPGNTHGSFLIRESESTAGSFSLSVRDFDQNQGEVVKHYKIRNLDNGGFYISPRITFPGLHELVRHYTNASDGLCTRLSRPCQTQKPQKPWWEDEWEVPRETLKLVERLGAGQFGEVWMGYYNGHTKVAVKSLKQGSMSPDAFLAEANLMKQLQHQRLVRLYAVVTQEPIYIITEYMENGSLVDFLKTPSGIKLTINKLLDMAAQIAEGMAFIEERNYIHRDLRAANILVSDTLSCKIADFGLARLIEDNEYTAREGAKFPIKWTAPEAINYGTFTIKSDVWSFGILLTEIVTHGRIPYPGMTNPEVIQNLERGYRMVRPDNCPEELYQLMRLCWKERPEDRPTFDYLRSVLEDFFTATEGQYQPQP

T11 sequence (Q9P1W9 whole entry): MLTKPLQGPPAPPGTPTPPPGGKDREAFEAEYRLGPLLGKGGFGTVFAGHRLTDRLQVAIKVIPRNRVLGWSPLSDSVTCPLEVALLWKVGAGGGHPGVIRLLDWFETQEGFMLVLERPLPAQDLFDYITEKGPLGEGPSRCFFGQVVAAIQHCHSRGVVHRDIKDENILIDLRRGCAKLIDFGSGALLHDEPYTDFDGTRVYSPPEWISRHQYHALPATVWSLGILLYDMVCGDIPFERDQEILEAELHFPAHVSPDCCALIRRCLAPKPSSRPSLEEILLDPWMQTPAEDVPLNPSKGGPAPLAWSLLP
T3 sequence (Q06187 whole entry): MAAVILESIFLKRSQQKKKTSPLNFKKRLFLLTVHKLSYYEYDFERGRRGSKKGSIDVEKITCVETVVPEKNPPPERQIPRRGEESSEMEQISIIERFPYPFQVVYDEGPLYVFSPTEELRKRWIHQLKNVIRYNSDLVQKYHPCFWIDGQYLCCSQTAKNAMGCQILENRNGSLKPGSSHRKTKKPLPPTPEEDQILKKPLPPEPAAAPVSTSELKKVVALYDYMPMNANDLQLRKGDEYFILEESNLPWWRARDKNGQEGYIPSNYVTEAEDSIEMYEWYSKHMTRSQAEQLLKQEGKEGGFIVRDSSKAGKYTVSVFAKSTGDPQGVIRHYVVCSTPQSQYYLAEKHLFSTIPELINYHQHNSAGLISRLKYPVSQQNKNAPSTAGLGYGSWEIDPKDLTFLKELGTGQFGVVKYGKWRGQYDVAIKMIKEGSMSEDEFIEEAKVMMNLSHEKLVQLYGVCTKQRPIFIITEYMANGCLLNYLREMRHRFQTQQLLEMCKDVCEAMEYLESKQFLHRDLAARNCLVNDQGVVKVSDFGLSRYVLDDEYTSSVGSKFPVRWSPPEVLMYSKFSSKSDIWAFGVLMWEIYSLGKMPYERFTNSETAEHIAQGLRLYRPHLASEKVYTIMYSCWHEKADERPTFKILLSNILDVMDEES
T7 sequence (Q5TCY1 whole entry): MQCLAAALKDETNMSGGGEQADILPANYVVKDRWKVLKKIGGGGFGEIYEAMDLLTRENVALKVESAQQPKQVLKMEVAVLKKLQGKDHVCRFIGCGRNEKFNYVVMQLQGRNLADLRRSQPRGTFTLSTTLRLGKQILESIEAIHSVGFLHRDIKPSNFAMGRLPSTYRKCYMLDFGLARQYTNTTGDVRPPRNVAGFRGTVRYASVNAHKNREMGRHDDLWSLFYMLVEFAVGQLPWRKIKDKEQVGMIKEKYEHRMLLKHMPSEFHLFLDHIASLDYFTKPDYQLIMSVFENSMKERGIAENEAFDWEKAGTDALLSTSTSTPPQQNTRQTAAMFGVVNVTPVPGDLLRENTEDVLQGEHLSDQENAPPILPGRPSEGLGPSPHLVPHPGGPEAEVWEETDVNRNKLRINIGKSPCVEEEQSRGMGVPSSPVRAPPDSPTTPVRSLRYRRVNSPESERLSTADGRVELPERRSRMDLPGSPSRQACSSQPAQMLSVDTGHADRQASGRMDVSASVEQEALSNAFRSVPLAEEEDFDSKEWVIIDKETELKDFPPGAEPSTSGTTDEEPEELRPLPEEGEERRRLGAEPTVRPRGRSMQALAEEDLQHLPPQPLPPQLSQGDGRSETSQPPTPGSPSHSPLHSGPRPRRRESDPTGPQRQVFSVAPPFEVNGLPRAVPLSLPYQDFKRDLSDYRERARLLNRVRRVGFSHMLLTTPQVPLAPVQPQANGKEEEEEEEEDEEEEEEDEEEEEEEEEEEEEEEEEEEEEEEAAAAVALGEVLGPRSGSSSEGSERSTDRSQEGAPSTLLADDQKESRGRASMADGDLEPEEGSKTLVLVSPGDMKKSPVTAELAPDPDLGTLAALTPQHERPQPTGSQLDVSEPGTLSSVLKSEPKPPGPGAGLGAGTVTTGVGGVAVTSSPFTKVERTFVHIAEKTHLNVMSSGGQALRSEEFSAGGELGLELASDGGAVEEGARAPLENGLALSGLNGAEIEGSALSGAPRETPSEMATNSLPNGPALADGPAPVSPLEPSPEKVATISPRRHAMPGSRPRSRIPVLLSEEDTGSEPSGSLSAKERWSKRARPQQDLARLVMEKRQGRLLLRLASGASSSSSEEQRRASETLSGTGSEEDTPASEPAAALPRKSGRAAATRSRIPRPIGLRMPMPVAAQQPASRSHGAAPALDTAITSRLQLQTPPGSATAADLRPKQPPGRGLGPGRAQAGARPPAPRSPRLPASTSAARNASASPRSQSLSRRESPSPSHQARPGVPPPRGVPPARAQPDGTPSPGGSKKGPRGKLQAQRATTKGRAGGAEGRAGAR
T2 sequence (Q9UPE1 whole entry): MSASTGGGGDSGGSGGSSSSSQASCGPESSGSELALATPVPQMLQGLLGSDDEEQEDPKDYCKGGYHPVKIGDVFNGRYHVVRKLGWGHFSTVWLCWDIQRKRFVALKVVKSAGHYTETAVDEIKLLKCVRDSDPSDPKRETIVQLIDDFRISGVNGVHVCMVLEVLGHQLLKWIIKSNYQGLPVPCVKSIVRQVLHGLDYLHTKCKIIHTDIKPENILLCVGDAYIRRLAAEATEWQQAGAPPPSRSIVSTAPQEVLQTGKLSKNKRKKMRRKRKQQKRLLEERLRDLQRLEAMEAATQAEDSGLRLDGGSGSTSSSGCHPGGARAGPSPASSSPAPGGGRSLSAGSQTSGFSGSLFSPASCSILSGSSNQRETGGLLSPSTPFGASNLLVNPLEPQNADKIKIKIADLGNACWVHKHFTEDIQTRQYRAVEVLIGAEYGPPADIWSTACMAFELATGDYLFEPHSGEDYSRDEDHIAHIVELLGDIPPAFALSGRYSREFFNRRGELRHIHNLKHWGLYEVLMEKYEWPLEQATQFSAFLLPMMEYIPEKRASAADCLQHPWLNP
T5 sequence (P42684 whole entry): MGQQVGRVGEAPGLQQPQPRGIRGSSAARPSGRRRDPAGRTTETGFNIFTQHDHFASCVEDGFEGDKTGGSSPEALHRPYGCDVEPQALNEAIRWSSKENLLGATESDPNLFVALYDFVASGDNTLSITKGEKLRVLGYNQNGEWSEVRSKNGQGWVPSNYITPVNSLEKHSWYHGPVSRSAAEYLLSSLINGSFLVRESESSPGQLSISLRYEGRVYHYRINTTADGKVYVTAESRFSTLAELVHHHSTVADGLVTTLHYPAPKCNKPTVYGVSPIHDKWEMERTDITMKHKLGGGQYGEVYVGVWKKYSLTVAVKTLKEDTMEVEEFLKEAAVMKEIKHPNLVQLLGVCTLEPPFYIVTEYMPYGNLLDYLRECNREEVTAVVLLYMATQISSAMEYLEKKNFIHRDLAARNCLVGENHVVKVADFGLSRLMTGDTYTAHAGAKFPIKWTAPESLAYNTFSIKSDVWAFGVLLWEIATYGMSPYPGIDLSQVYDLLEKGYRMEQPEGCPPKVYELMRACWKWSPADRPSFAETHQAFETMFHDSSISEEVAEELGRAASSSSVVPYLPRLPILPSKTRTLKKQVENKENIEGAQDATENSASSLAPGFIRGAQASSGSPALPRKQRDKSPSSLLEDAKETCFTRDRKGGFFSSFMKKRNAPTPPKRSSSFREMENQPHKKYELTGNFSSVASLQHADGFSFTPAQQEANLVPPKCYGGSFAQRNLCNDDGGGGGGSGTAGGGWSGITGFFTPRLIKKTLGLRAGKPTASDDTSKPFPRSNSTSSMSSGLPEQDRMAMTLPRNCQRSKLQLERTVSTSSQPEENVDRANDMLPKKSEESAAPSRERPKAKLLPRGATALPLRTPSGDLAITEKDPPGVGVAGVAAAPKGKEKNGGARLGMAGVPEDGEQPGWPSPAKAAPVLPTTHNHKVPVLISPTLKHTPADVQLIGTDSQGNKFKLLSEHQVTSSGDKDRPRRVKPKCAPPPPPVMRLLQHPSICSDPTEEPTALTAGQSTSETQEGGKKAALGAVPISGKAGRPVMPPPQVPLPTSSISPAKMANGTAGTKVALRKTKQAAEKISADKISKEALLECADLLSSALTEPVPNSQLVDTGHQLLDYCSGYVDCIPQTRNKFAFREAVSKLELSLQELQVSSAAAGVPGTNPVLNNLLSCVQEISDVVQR
T1 sequence (P68400 whole entry): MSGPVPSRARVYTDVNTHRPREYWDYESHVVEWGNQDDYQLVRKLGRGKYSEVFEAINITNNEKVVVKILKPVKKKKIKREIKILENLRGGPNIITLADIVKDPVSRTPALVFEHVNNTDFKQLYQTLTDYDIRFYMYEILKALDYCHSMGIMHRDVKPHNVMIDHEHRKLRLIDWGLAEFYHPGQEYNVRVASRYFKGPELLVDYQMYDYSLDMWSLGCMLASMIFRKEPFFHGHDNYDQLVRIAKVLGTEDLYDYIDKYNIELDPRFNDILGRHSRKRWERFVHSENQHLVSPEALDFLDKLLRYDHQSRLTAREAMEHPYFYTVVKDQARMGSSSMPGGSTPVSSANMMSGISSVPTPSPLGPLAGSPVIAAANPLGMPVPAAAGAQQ

COc1cc(OC)c(Cl)c(-c2ccc3c(NC(=O)c4ccc(N5CCNC(C)(C)C5)cc4)n[nH]c3n2)c1Cl [3D185]
inhibition at 0.01 µM ([1]; 10 nM): 23% | inhibition at 0.1 µM ([1]; 100 nM): 21% | inhibition at 1 µM ([1]; 1000 nM): 10% | inhibition at 0.01 µM ([2]; 10 nM): 3% | inhibition at 0.1 µM ([2]; 100 nM): 11% | inhibition at 1 µM ([2]; 1000 nM): 18% | Inhibition rate (%) ([3]; 10 nM): -3% | Inhibition rate (%) ([3]; 100 nM): 0% | Inhibition rate (%) ([3]; 1000 nM): -1% | inhibition at 0.01 µM ([4]; 10 nM): 11% | inhibition at 0.1 µM ([4]; 100 nM): 39% | inhibition at 1 µM ([4]; 1000 nM): 90% | inhibition at 0.01 µM ([5]; 10 nM): 6% | inhibition at 0.1 µM ([5]; 100 nM): 5% | inhibition at 1 µM ([5]; 1000 nM): -4% | inhibition at 0.01 µM ([6]; 10 nM): 2% | inhibition at 0.1 µM ([6]; 100 nM): 36% | inhibition at 1 µM ([6]; 1000 nM): 87% | inhibition at 0.01 µM ([7]; 10 nM): 4% | inhibition at 0.1 µM ([7]; 100 nM): 2% | inhibition at 1 µM ([7]; 1000 nM): 11% | inhibition at 0.01 µM ([8]; 10 nM): 2% | inhibition at 0.1 µM ([8]; 100 nM): -7% | inhibition at 1 µM ([8]; 1000 nM): -6% | inhibition at 0.01 µM ([9]; 10 nM): 1% | inhibition at 0.1 µM ([9]; 100 nM): 3% | inhibition at 1 µM ([9]; 1000 nM): -5% | inhibition at 0.01 µM ([10]; 10 nM): 15% | inhibition at 0.1 µM ([10]; 100 nM): 67% | inhibition at 1 µM ([10]; 1000 nM): 94% | inhibition at 0.01 µM ([11]; 10 nM): -3% | inhibition at 0.1 µM ([11]; 100 nM): -5% | inhibition at 1 µM ([11]; 1000 nM): 20% | inhibition at 0.01 µM ([12]; 10 nM): 11% | inhibition at 0.1 µM ([12]; 100 nM): 3% | inhibition at 1 µM ([12]; 1000 nM): 6% | inhibition at 0.01 µM ([13]; 10 nM): 22% | inhibition at 0.1 µM ([13]; 100 nM): 60% | inhibition at 1 µM ([13]; 1000 nM): 94%
